This is an account of results in patent US7772256B2, “2-heteroaryl substituted benzothiophenes and benzofuranes 709” (Astrazeneca AB, priority 2007, dated 2010).

SMILES strings stand for the structures.

As a reminder, the IC50 is the concentration at which inhibition is half-maximal. A lower IC50 goes with greater potency.

This assay deals with T1, synthetic Aβ 1-40 (Homo sapiens, UniProt P05067).
T1 construct: synthetic Aβ 1-40
T1 sequence (P05067 672-711 limits assumed): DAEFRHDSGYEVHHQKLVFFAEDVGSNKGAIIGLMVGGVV
Description: Competition binding assay ([3H]PIB as radioligand). The conditions noted are these: 2.7 nM [3H]PIB radioligand, phosphate buffer pH 7.5, 30 min room temperature. Here is the method: Competition binding was performed in 384-well FB filter plates using synthetic Aβ 1-40 in 2.7 nM of [^3H]PIB (or another ^3H-labeled radioligand when so mentioned) in phosphate buffer at pH 7.5, by adding various concentrations of non-radioactive compounds originally dissolved in DMSO. The binding mixture was incubated for 30 min at room temperature, followed by vacuum filtration, and subsequentially by washing twice with 1% Triton-X100. Scintillation fluid was thereafter added to the collected Aβ 1-40 on the filter plate, and the activity of the bound remaining radioligand ([^3H]PIB or another ^3H-labeled radioligand) was measured using 1450 Microbeta from PerkinElmer. Specific binding was determined according to the competion binding assay described herein. The determined IC50's in the competion binding assays (using [^3H]PIB as radioligand) of compounds of the present invention are shown in Table 1.
Take `COc1ccc2nc(-c3cc4ccccc4o3)cn2c1` [2-(1-benzofuran-2-yl)-6-methoxyimidazo[1,2-a]pyridine]: the IC50 is 361 nM. In other words, the sub-micromolar range.
In turn, `CNc1ccc(-c2cc3cc(O)ccc3o2)c(F)n1` [2-(2-Fluoro-6-methylamino-pyridin-3-yl)-benzofuran-5-ol] yielded an IC50 of 18 nM.
Next, `CNc1ncc(-c2cc3cc(O)ccc3o2)cc1F` [2-(5-fluoro-6-methylamino-pyridin-3-yl)-benzofuran-5-ol]: 32 nM; `Nc1ccc(-c2cc3cc(O)ccc3o2)nn1` [2-(6-Amino-pyridazin-3-yl)-benzofuran-5-ol]: 2710 nM.
Turning to `CNc1ccc(-c2cc3cc(O)ccc3o2)nc1F` [2-(6-Fluoro-5-methylamino-pyridin-2-yl)-benzofuran-5-ol], the concentration for half-maximal inhibition (IC50) worked out at 44 nM.
Next, `CNc1ccc(-c2cc3cc(O)ccc3o2)cn1` [2-(6-Methylamino-pyridin-3-yl)-benzofuran-5-ol]: 46 nM; `NC(=O)c1ccc(-c2cc3ccccc3o2)cn1` [5-(1-Benzofuran-2-yl)pyridine-2-carboxamide]: 19 nM.
Next, `NC(=O)c1ccc(-c2cc3ccccc3s2)cn1` [5-(1-benzothien-2-yl)pyridine-2-carboxamide]: 30 nM.
The value for `NC(=O)c1ccc(-c2cc3cc(O)ccc3o2)cn1` [5-(5-Hydroxy-benzofuran-2-yl)-pyridine-2-carboxylic acid amide] was 600 nM.
Take `COc1ccc2oc(-c3ccc(C(N)=O)nc3)cc2c1` [5-(5-Methoxy-benzofuran-2-yl)-pyridine-2-carboxylic acid amide]: the 50% inhibitory concentration (IC50) turned out to be 61 nM.
Next, `NC(=O)c1ccc(-c2cc3cc(O)ccc3o2)nc1` [6-(5-Hydroxy-benzofuran-2-yl)-nicotinamide]: 43 nM; `COc1ccc2oc(-c3ccc(C(N)=O)cn3)cc2c1` [6-(5-Methoxy-benzofuran-2-yl)-nicotinamide]: 33 nM.
Next, `COc1ccc2oc(-c3ccc(N)nn3)cc2c1` [6-(5-Methoxy-benzofuran-2-yl)-pyridazin-3-ylamine]: 912 nM.
The value for `CNc1ccc(-c2cc3cc(OC)ccc3o2)cn1` [[5-(5-Methoxy-benzofuran-2-yl)-pyridin-2-yl]-methylamine] was 66 nM.
